Entries after “also recorded” stand apart in the source; their conditions may differ.

A short description of the series: Qualitative solubility in water and organic solvents. Type of series: physicochemical. The settings on record: for solubility in methanol: compared to octadecadiynyl analogues 12 and 3; for solubility in organic solvents: organic solvents like CHCl3, CH2Cl2 (and DMF). An excerpt:
Thus self-aggregation behavior of 3 has not been investigated. To increase the polar character and to improve the water-solubility of such a bis-biotinated derivative, the [5:1]-hexakisadduct 13 with five ethyl malonate addends instead of the five octadecadiynyl malonates was synthesized (FIG. 2). To overcome the general problem of separating the desired hexakisadducts from other adducts formed simultaneously upon the exhaustive cyclopropanation step the sequence of addition steps was reversed in this case. For this purpose the cherry-red C2v-symmetrical [5:0]-pentakisadduct 14^[14] was prepared and used as starting material. The subsequent cyclopropanation reaction with the Boc-protected spacer malonate 8 to complete the C2v-symmetrical octahedral addition pattern afforded the bright-yellow N-Boc-protected [5:1]-hexakisadduct 15 in 63% yield after FC and HPLC purification. After cleavage of the Boc-protecting groups with TFA/CH2Cl2 the bis-amino amphifullerene 16 was obtained in quantitative yield. […]
The characterization of the protected dipeptide hexakisadduct precursors 45 and 46 as well as the free dipeptide hexakisadducts 47 and 48 succeeded by IR-, UV-, ^1H and ^13C NMR and by FAB mass spectroscopy.
The synthesis of a series of mixed amphiphilic hexakisadducts of C60 with an octahedral addition pattern is now described. The new [5:1]-hexakisadduct 3 involving five non-polar long chain malonate addends and one polar addend with two biotin termini is insoluble in water. As a consequence it cannot be used for the investigation of superstructures in aqueous solution. However, it represents an attractive building block for a potential co-surfactant aided assembly to mixed micelles or liposomes. The spacer carrying the biotin termini was designed in a way that it can protrude through a layer of assembled lipid molecules such as DPPC. This in principle makes it available for targeting of micelles and liposomes via avidin mediated binding of label molecules. This is believed to be the first report of the synthesis of amphiphilic [3:3]-hexakisadducts of C60. The key for the very facile access to these aesthetically pleasing molecules is the easy synthesis of the e,e,e-trisadduct 18, which can be prepared in one step from the highly regioselective addition of cyclo-[3]-octylmalonate 17. The remaining three octahedral sites are available for the attachment of three ionic or neutral polar addends. As termini carboxy, amino and peptide moieties were used. This allows for the introduction of a tunable number of positive or negative charges within the polar groups by pH-variation. In a few cases preliminary investigations on the self-assembly using cryo-TEM and PGSE-NMR have been carried out. It has been shown that the solubility and self-assembly properties depend on the number of ionic charges and therefore on the pH value. These are very favourable opportunities for the controlled encapsulation and release of non-polar guest molecules making such amphiphilic fullerenes interesting candidates for drug delivery systems. Extensive investigations on the aggregation and inclusion properties of amphiphilic [3:3]-hexakisadducts of C60 are currently under way.

Regarding “1,2-{Bis-(14-[3-{2-(2-[Aminopropoxy]-ethoxy)-ethoxy}-propyl]carbamoyl-tetradecyloxycarbonyl)-methano}-18,36:22,23:27,45:31,32:55,60-pentakis-{ethyloxycarbonyl)-methano}-1,2:18,36:22,23:27,45:31,32:55,60-dihydro[60]fullerene [compound 16]”, the solubility in methanol result was “enhanced solubility” and the “solubility in organic solvents” value is on record as “appreciable solubility”.
For the substance “1,2-{Bis-(14-[3-{2-(2-[N-Biotinyl-aminopropoxy]-ethoxy)-ethoxy}-propyl]-carbamoyltetradecyloxycarbonyl)-methano}-18,36:22,23:27,45:31,32:55,60-pentakis-{di(10,12-octadecadiynyloxycarbonyl)-methano}-1,2:18,36:22,23:27,45:31,32:55,60-dihydro[60]fullerene [compound 3]”, the “solubility in organic solvents” value is on record as “Acceptable solubility”, the self-assembly in water entry is “inappropriate to form self-assemblies in water” and the solubility in water entry is “only soluble in the presence of a co-solvent like methanol; also recorded: water-insoluble”.
Turning to “1,2-{Bis-(14-[3-{2-(2-[N-Biotinyl-aminopropoxy]ethoxy)-ethoxy}-propyl]-carbamoyl-tetradecyloxycarbonyl)-methano}-18,36:22,23:27,45:31,32:55,60-pentakis-{ethyloxycarbonyl)-methano}1,2:18,36:22,23:27,45:31,32:55,60-dihydro-[60]fullerene [compound 13]”, the solubility in methanol result was “enhanced solubility”, the “solubility in organic solvents” value is “appreciable solubility”, the self-assembly in water entry is “inappropriate to form self-assemblies in water” and the solubility in water result is given as “water-insoluble”.

The record behind these values is patent publication US7507764B2 (Tego BioSciences Corporation, priority 2003, dated 2009).
